Patent US7371888B2, “α-(Trifluoromethyl-substituted aryloxy, arylamino, arylthio or arylmethyl)-trifluoromethyl-substituted phenylacetic acids and derivatives as antidiabetic agents” (Metabolex, Inc., priority 2004, dated 2008)

Tested on: C57BL/6J ob/ob mice
Test: Anti-diabetic activity in the C57BL/6j ob/ob mice model (plasma glucose lowering, insulin level)
Type: in vivo
Conditions: male C57BL/6J ob/ob mice, orally by gavage once a day for 1-4 days; for minimal effective dose: Mus musculus, po, glucose lowering, plasma glucose 6 hours after each dose, read-out: Potency; for Insulin Level compared with vehicle: drug-treated vs vehicle-treated
Method: The anti-diabetic activities of the compounds were evaluated in the C57BL/6j ob/ob Mice model. Male, 7-9 weeks old, C57BL/6J ob/ob mice were purchased from The Jackson Laboratory (Bar Harbor, Me., USA). Animals were housed (4-5 mice/cage) under standard laboratory conditions at 22±3° C. temperature and 50±20% relative humidity, and were maintained on a diet of Purina rodent chow and water ad libitum. Prior to treatment, blood was collected from the tail vein of each animal. Mice that had non-fasting plasma glucose levels between 250 and 500 mg/dl were used. Each treatment group consisted of 8-10 mice that were distributed so that the mean glucose levels were equivalent in each group at the start of the study. Mice were dosed orally by gavage once a day for 1-4 days with vehicle and one or more dose of test compound at a dose ranging from 5 to 125 mg/kg. Compounds were delivered in a liquid formulation containing 5% (v/v) dimethyl sulfoxide (DMSO), 1% (v/v) Tween 80® and 0.9% (w/v) methylcellulose. The gavage volume was 10 ml/kg. Blood samples were taken at 6 hours after the each dose and analyzed for plasma glucose. Food intake and body weight were measured daily. Plasma glucose concentrations were determined calorimetrically using a commercial glucose oxidase method (Sigma Chemical Co, St. Louis, Mo., USA). Significant difference between groups (comparing drug-treated to vehicle-treated) was evaluated using the Student unpaired t-test. Table 1 provides the relative potency of some selected compounds of the invention.

SMILES | minimal effective dose | Insulin Level compared with vehicle
CC(=O)NCCOC(=O)C(Oc1ccccc1C(F)(F)F)c1ccc(C(F)(F)F)cc1 (centres unmarked) [Compound 146] | > 125 mg/kg | Lower
CC(Oc1ccc(C(F)(F)F)cc1)(C(=O)O)c1ccc(C(F)(F)F)cc1 (centres unmarked) [Compound 121, 2-(4-Trifluoromethyl-phenoxy)-2-(4-trifluoromethyl-phenyl)-propionic acid] | ≤ 125 mg/kg | Lower
OCC(Oc1ccc(C(F)(F)F)cc1Cl)c1ccc(C(F)(F)F)cc1 (centres unmarked) [Compound 128] | ≤ 125 mg/kg | Lower
CC(=O)NCCOC(=O)C(Oc1ccc(C(F)(F)F)cc1)c1cccc(C(F)(F)F)c1 (centres unmarked) [Compound 136, (4-trifluoromethyl-phenoxy)-(3-trifluoromethyl-phenyl)-acetic acid 2-acetylamino-ethyl ester] | ≤ 125 mg/kg | Lower
CC(=O)NCCOC(=O)C(Oc1cccc(C(F)(F)F)c1)c1ccccc1C(F)(F)F (centres unmarked) [Compound 147] | > 125 mg/kg | Lower
CC(Oc1ccc(C(F)(F)F)cc1)(C(=O)O)c1cccc(C(F)(F)F)c1 (centres unmarked) [Compound 120, 2-(4-trifluoromethyl-phenoxy)-2-(3-trifluoromethyl-phenyl)-propionic acid] | ≤ 125 mg/kg | Lower
CC(=O)NCCOC(=O)C(Oc1cc(C(F)(F)F)cc(C(F)(F)F)c1)c1ccc(C(F)(F)F)cc1 (centres unmarked) [Compound 143] | ≤ 125 mg/kg | Lower
O=C(O)C(Oc1ccc(C(F)(F)F)cc1)c1cccc(C(F)(F)F)c1 (single isomer, unassigned; (+)) [(+)-39, (4-trifluoromethyl-phenoxy)-(3-trifluoromethyl-phenyl)-acetic acid] | – | Lower
CC(=O)NCCOC(=O)C(Oc1cccc(C(F)(F)F)c1)c1cccc(C(F)(F)F)c1 (centres unmarked) [Compound 144] | ≤ 125 mg/kg | Lower
O=C(O)C(Oc1cccc(C(F)(F)F)c1)c1ccc(C(F)(F)F)cc1 (centres unmarked) [Compound 86, (3-trifluoromethyl-phenoxy)-(4-trifluoromethyl-phenyl)-acetic acid] | ≤ 125 mg/kg | Lower
O=C(O)C(Oc1ccc(C(F)(F)F)cc1)c1cccc(C(F)(F)F)c1 (centres unmarked) [Compound 39, (4-Trifluoromethyl-phenoxy)-(3-trifluoromethyl-phenyl)-acetic acid] | – | Lower
O=C(O)C(Oc1ccc(C(F)(F)F)cc1Cl)c1ccc(C(F)(F)F)cc1 (centres unmarked) [Compound 89, (2-Chloro-4-trifluoromethyl-phenoxy)-(4-trifluoromethyl-phenyl)-acetic acid] | ≤ 125 mg/kg | Lower
CC(=O)NCCOC(=O)C(Oc1ccc(C(F)(F)F)cc1)c1ccc(C(F)(F)F)cc1 (centres unmarked) [Compound 145] | ≤ 125 mg/kg | Lower
O=C(O)C(Oc1cc(C(F)(F)F)cc(C(F)(F)F)c1)c1ccc(C(F)(F)F)cc1 (centres unmarked) [Compound 81] | ≤ 125 mg/kg | Lower
CC(=O)NCCOC(=O)C(Oc1cccc(C(F)(F)F)c1)c1ccc(C(F)(F)F)cc1 (centres unmarked) [Compound 142] | ≤ 125 mg/kg | Lower
O=C(O)C(Oc1ccc(C(F)(F)F)cc1Cl)c1cccc(C(F)(F)F)c1 (centres unmarked) [Compound 85, (2-Chloro-4-trifluoromethyl-phenoxy)-(3-trifluoromethyl-phenyl)-acetic acid] | ≤ 125 mg/kg | Lower
O=C(O)C(Oc1ccc(C(F)(F)F)cn1)c1cccc(C(F)(F)F)c1 (centres unmarked) [Compound 100, (3-trifluoromethyl-phenyl)-(5-trifluoromethyl-pyridin-2-yloxy)-acetic acid] | ≤ 125 mg/kg | Lower
O=C(O)C(Oc1ccc(C(F)(F)F)cc1)c1ccc(C(F)(F)F)cc1 (centres unmarked) [Compound 83, (4-Trifluoromethyl-phenoxy)-(4-trifluoromethyl-phenyl)-acetic acid] | ≤ 125 mg/kg | Lower
O=C(O)C(Oc1ccc(C(F)(F)F)cc1)c1cccc(C(F)(F)F)c1 (single isomer, unassigned; (-)) [(−)-39, (4-trifluoromethyl-phenoxy)-(3-trifluoromethyl-phenyl)-acetic acid] | – | Lower
